Each structure is given as a SMILES string.

What is called EC50 is the concentration that produces a half-maximal response.

For this experiment, the target named is MALT1 (Homo sapiens (Human), UniProt Q9UDY8). Description: MALT1 enzymatic activity inhibition (fluorescence, Ac-LRSR-AMC substrate). It is filed as biochemical. The note with it: recombinant MALT1 1.5 ng/μl, Ac-LRSR-AMC 1 μM. The procedure: Compound activity was determined using recombinant MALT1 protein (Creative Biomart, Cat #MALT1-28H) and Ac-LRSR-AMC Substrate in an in vitro enzymatic reaction. The enzymatic assay used to determine activity was a Fluorescence assay using a Microplate Reader ClarioStar Plus. The enzymatic reaction was carried out in 1× Assay Buffer (50 mM HEPES pH 7.2-7.4, 100 mM NaCl, 900 mM Sodium citrate, 10 mM DTT). The compounds were dispensed on a 384-well Diamond Well Plate (Axygen, Cat #P-384-120SQ-C—S) using the Biomek FX liquid handling system at 100× solutions of compounds in DMSO. 2.5×MALT1 mix (final concentration 1.5 ng/μl of MALT1) was prepared in 1× Assay Buffer and 8 μl of mixture per well were added into 384w white Reaction Plates with NBS (Corning, Cat #4513). 8 μl of 1× Assay Buffer were used for negative control. Plates were centrifuged for 1 min at 200 g. Next, the compounds were added to Reaction plates using Biomek station via following steps: 1 μl of 100× compounds (in DMSO) was mixed thoroughly with 19 μl of 1× Assay Buffer, then 4 μl of this mixture were added to Reaction plates with 8 μl of MALT1 mix. Plates were centrifuged for 1 min at 200 g and incubated for 10 minutes at rt. Next, 2.5× Ac-LRSR-AMC mix (final concentration 1 μM of Ac-LRSR-AMC) was prepared in 1× Assay Buffer and 8 μl of mixture per well were added to Reaction Plates using Biomek station. Plates were centrifuged for 1 min at 200 g, then the fluorescence was measured immediately using Microplate Reader. Plates were incubated for 30 minutes at 37° C., then for 30 minutes at rt. The fluorescence was measured after the whole incubation using Microplate Reader. The reaction signal was calculated as the subtraction of the first data set values from the second. The % inhibition was then used to calculate the IC50 values. The results of this assay are shown in the Table A. The values of EC50 shown as a letters A-E, where: A≤0.2 μM; 0.2 μM<B≤0.5 μM; 0.5 μM<C≤1 μM; 1<D≤5 μM; E >5.
Chain of MALT1 (Q9UDY8 whole entry): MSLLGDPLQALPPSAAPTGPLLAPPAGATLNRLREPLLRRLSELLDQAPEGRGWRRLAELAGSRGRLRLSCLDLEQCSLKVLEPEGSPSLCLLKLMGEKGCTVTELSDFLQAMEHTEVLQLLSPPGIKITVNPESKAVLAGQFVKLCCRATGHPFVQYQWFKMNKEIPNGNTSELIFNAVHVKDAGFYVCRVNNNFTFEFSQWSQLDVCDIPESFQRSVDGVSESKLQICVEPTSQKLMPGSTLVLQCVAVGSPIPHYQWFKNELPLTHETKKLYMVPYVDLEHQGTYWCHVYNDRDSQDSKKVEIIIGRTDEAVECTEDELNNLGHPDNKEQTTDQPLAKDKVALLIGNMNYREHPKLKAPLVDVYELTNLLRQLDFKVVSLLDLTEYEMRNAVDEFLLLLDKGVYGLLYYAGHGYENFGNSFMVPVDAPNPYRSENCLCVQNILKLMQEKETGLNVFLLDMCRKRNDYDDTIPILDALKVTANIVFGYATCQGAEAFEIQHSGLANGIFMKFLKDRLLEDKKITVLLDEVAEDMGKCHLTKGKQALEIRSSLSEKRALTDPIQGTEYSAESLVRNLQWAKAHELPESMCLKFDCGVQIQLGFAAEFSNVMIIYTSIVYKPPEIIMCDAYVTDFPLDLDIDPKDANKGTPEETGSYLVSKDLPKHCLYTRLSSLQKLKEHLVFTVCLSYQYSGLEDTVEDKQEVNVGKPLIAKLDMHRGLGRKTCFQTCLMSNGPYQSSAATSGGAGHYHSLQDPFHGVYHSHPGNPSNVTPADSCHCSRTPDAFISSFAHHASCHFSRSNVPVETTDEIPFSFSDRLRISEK
With `O=C(CCOCCN1CCN(c2ccc3c(c2)CN(C2CCC(=O)NC2=O)C3=O)CC1)NCCOc1ncc(Cl)cc1NC(=O)Nc1cnc2ncnn2c1C1CCCCC1` (centres unmarked) [Compound 51, N-[2-[[5-chloro-3-[(7-cyclohexyl-[1,2,4]triazolo[1,5-a]pyrimidin-6-yl)carbamoylamino]-2-pyridyl]oxy]ethyl]-3-[2-[4-[2-(2,6-dioxo-3-piperidyl)-1-oxo-isoindolin-5-yl]piperazin-1-yl]ethoxy]propanamide], the EC50 was greater than 5 µM. In the case of `O=C(CCOCCN1CCN(c2ccc3c(c2)CN(C2CCC(=O)NC2=O)C3=O)CC1)NCCOc1ncc(Cl)cc1NC(=O)Nc1cnc2nccn2c1C1CCCC1` (centres unmarked) [Compound 52, N-[2-[[5-chloro-3-[(5-cyclopentylimidazo[1,2-a]pyrimidin-6-yl)carbamoylamino]-2-pyridyl]oxy]ethyl]-3-[2-[4-[2-(2,6-dioxo-3-piperidyl)-1-oxo-isoindolin-5-yl]piperazin-1-yl]ethoxy]propanamide], the EC50 was greater than 5 µM. The figure for `Cc1cc(NC(=O)Nc2cnc3ccnn3c2C2CCCO2)cnc1-c1noc(CCCC(=O)N2CCN(c3ccc4c(c3)CN(C3CCC(=O)NC3=O)C4=O)CC2)n1` (centres unmarked) [Compound 58, 1-[6-[5-[4-[4-[2-(2,6-dioxo-3-piperidyl)-1-oxo-isoindolin-5-yl]piperazin-1-yl]-4-oxo-butyl]-1,2,4-oxadiazol-3-yl]-5-methyl-3-pyridyl]-3-(7-tetrahydrofuran-2-ylpyrazolo[1,5-a]pyrimidin-6-yl)urea] is no more than 0.2 µM. In the case of `Cc1cc2ncc(NC(=O)Nc3cnc(-c4noc(CCCCC(=O)N5CCN(c6ccc7c(c6)CN(C6CCC(=O)NC6=O)C7=O)CC5)n4)c(C)c3)c(C3CCCC3)n2n1` (centres unmarked) [Compound 59, 1-(7-cyclopentyl-2-methyl-pyrazolo[1,5-a]pyrimidin-6-yl)-3-[6-[5-[5-[4-[2-(2,6-dioxo-3-piperidyl)-1-oxo-isoindolin-5-yl]piperazin-1-yl]-5-oxo-pentyl]-1,2,4-oxadiazol-3-yl]-5-methyl-3-pyridyl]urea] it was no more than 0.2 µM. For the compound `Cc1cc(NC(=O)Nc2cnc3ccnn3c2C2CCCO2)cnc1-c1noc(CCC(=O)N2CCN(c3ccc4c(c3)CN(C3CCC(=O)NC3=O)C4=O)CC2)n1` (centres unmarked) [Compound 60, 1-[6-[5-[3-[4-[2-(2,6-dioxo-3-piperidyl)-1-oxo-isoindolin-5-yl]piperazin-1-yl]-3-oxo-propyl]-1,2,4-oxadiazol-3-yl]-5-methyl-3-pyridyl]-3-(7-tetrahydrofuran-2-ylpyrazolo[1,5-a]pyrimidin-6-yl)urea], the 50% effective concentration (EC50) was no more than 0.2 µM. Regarding `Cc1cc(NC(=O)Nc2cnc3ccnn3c2C2CCCC2)cnc1-c1noc(CCCCCC(=O)Nc2ccc3c(c2)CN(C2CCC(=O)NC2=O)C3=O)n1` (centres unmarked) [Compound 61, 6-[3-[5-[(7-cyclopentylpyrazolo[1,5-a]pyrimidin-6-yl)carbamoylamino]-3-methyl-2-pyridyl]-1,2,4-oxadiazol-5-yl]-N-[2-(2,6-dioxo-3-piperidyl)-1-oxo-isoindolin-5-yl]hexanamide], the EC50 was no more than 0.2 µM. The figure for `Cc1cc(NC(=O)Nc2cnc3ccnn3c2C2CCCO2)cnc1-c1noc(CCCN2CCN(c3ccc4c(c3)CN(C3CCC(=O)NC3=O)C4=O)CC2)n1` (centres unmarked) [Compound 62, 1-[6-[5-[3-[4-[2-(2,6-dioxo-3-piperidyl)-1-oxo-isoindolin-5-yl]piperazin-1-yl]propyl]-1,2,4-oxadiazol-3-yl]-5-methyl-3-pyridyl]-3-(7-tetrahydrofuran-2-ylpyrazolo[1,5-a]pyrimidin-6-yl)urea] is no more than 0.2 µM; for `Cc1cc(NC(=O)Nc2cnc3ccnn3c2C2CCCC2)cnc1-c1noc(CCCCCN2CCN(c3ccc4c(c3)CN(C3CCC(=O)N(C)C3=O)C4=O)CC2)n1` (centres unmarked) [Compound 64, 1-(7-cyclopentylpyrazolo[1,5-a]pyrimidin-6-yl)-3-[5-methyl-6-[5-[5-[4-[2-(1-methyl-2,6-dioxo-3-piperidyl)-1-oxo-isoindolin-5-yl]piperazin-1-yl]pentyl]-1,2,4-oxadiazol-3-yl]-3-pyridyl]urea] it is no more than 0.2 µM; for `Cc1c(NC(=O)Nc2cnc(-c3noc(CCCCCC(=O)N4CCN(c5ccc6c(c5)CN(C5CCC(=O)NC5=O)C6=O)CC4)n3)c(Cl)c2)cnc2ccnn12` (centres unmarked) [Compound 65, 1-[5-chloro-6-[5-[6-[4-[2-(2,6-dioxo-3-piperidyl)-1-oxo-isoindolin-5-yl]piperazin-1-yl]-6-oxo-hexyl]-1,2,4-oxadiazol-3-yl]-3-pyridyl]-3-(7-methylpyrazolo[1,5-a]pyrimidin-6-yl)urea] it is 0.2 to 0.5 µM.

Turning to `CC(C)c1c(NC(=O)Nc2cnc(-c3noc(CCCCCC(=O)N4CCN(c5ccc6c(c5)CN(C5CCC(=O)NC5=O)C6=O)CC4)n3)c(Cl)c2)cnc2ccnn12` (centres unmarked) [Compound 66, 1-[5-chloro-6-[5-[6-[4-[2-(2,6-dioxo-3-piperidyl)-1-oxo-isoindolin-5-yl]piperazin-1-yl]-6-oxo-hexyl]-1,2,4-oxadiazol-3-yl]-3-pyridyl]-3-(7-isopropylpyrazolo[1,5-a]pyrimidin-6-yl)urea], the EC50 is no more than 0.2 µM. On to `Cc1cc2ncc(NC(=O)Nc3cnc(-c4noc(CCCCCC(=O)N5CCN(c6ccc7c(c6)CN(C6CCC(=O)NC6=O)C7=O)CC5)n4)c(C)c3)c(C3CCCO3)n2n1` (centres unmarked) [Compound 67, 1-[6-[5-[6-[4-[2-(2,6-dioxo-3-piperidyl)-1-oxo-isoindolin-5-yl]piperazin-1-yl]-6-oxo-hexyl]-1,2,4-oxadiazol-3-yl]-5-methyl-3-pyridyl]-3-(2-methyl-7-tetrahydrofuran-2-yl-pyrazolo[1,5-a]pyrimidin-6-yl)urea], for which the concentration giving a half-maximal response (EC50) was no more than 0.2 µM. Consider `Cc1cc(NC(=O)Nc2cnc3ccnn3c2C2CCCC2)cnc1-c1noc(CCCCCCN2CCN(c3ccc4c(c3)CN(C3CCC(=O)NC3=O)C4=O)CC2)n1` (centres unmarked) [Compound 68, 1-(7-cyclopentylpyrazolo[1,5-a]pyrimidin-6-yl)-3-[6-[5-[6-[4-[2-(2,6-dioxo-3-piperidyl)-1-oxo-isoindolin-5-yl]piperazin-1-yl]hexyl]-1,2,4-oxadiazol-3-yl]-5-methyl-3-pyridyl]urea], for which the EC50 was no more than 0.2 µM.

Turning to `CC(C)(C)C(=O)OCN1C(=O)CCC(N2Cc3cc(N4CCN(C(=O)CCCCCc5nc(-c6ncc(NC(=O)Nc7cnc8ccnn8c7C7CCCC7)cc6Cl)no5)CC4)ccc3C2=O)C1=O` (centres unmarked) [Compound 70, [3-[5-[4-[6-[3-[3-chloro-5-[(7-cyclopentylpyrazolo[1,5-a]pyrimidin-6-yl)carbamoylamino]-2-pyridyl]-1,2,4-oxadiazol-5-yl]hexanoyl]piperazin-1-yl]-1-oxo-isoindolin-2-yl]-2,6-dioxo-1-piperidyl]methyl 2,2-dimethylpropanoate], the EC50 was no more than 0.2 µM. Turning to `O=C1CCC(N2Cc3cc(N4CCN(C(=O)CCCc5nc(-c6ncc(NC(=O)Nc7cnc8ccnn8c7C7CCCC7)cc6Cl)no5)CC4)ccc3C2=O)C(=O)N1` (centres unmarked) [Compound 71, 1-[5-chloro-6-[5-[4-[4-[2-(2,6-dioxo-3-piperidyl)-1-oxo-isoindolin-5-yl]piperazin-1-yl]-4-oxo-butyl]-1,2,4-oxadiazol-3-yl]-3-pyridyl]-3-(7-cyclopentylpyrazolo[1,5-a]pyrimidin-6-yl)urea], the EC50 was no more than 0.2 µM.

Regarding `Cc1cc2ncc(NC(=O)Nc3cnc(-c4noc(CCCCCCN5CCN(c6ccc7c(c6)CN(C6CCC(=O)NC6=O)C7=O)CC5)n4)c(C)c3)c(C3CCCO3)n2n1` (centres unmarked) [Compound 73, 1-[6-[5-[6-[4-[2-(2,6-dioxo-3-piperidyl)-1-oxo-isoindolin-5-yl]piperazin-1-yl]hexyl]-1,2,4-oxadiazol-3-yl]-5-methyl-3-pyridyl]-3-(2-methyl-7-tetrahydrofuran-2-yl-pyrazolo[1,5-a]pyrimidin-6-yl)urea], the EC50 is no more than 0.2 µM. With `O=C1CCC(N2Cc3cc(N4CCN(C(=O)CCCCCc5nc(-c6ncc(NC(=O)Nc7cnc8ccnn8c7C7CCCC7)cc6F)no5)CC4)ccc3C2=O)C(=O)N1` (centres unmarked) [Compound 74, 1-(7-cyclopentylpyrazolo[1,5-a]pyrimidin-6-yl)-3-[6-[5-[6-[4-[2-(2,6-dioxo-3-piperidyl)-1-oxo-isoindolin-5-yl]piperazin-1-yl]-6-oxo-hexyl]-1,2,4-oxadiazol-3-yl]-5-fluoro-3-pyridyl]urea], the EC50 was 0.2 to 0.5 µM. In the case of `O=C1CCC(N2Cc3cc(N4CCN(CCCCc5nc(-c6ncc(NC(=O)Nc7cnc8ccnn8c7C7CCCC7)cc6Cl)no5)CC4)ccc3C2=O)C(=O)N1` (centres unmarked) [Compound 75, 1-[5-chloro-6-[5-[4-[4-[2-(2,6-dioxo-3-piperidyl)-1-oxo-isoindolin-5-yl]piperazin-1-yl]butyl]-1,2,4-oxadiazol-3-yl]-3-pyridyl]-3-(7-cyclopentylpyrazolo[1,5-a]pyrimidin-6-yl)urea], the EC50 was no more than 0.2 µM.

These data come from patent US20250163066A1, “PROTACs of MALT1” (TEGID THERAPEUTICS, INC., priority 2022, published 2025).
